For the test, the system named is CEM cells HIV-1 protection, formazan growth assay. The test is described as follows: NCI AIDS Antiviral Assay. The following applies: for IC50: measured here: growth of uninfected CEM cells. Put shortly: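 Human CEM cells, uninfected and HIV-1-infected, received five drug concentrations, and growth was read by soluble formazan assay. Compounds giving at least 50% protection were retested; reproducible 100% protection defined confirmed active.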

Several values for one entry are separate records, joined by “and”; a condition that tells them apart may be missing. Equal values may be shown once. Activity calls are given as the source filed them.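 The calls were made as follows: active = compounds giving half or more protection of infected cells from virus-caused growth loss, again on retest; inactive = the rest.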 *1 amine or outer side, *2 acyl side, *3 side chain or, on linkers, in order; H or OH if unused. Where a SMILES comes first, the peptide text is derived from it. [ ]: non-standard residue; d: D form. X7 = NC(N)=NCC(O)CC(N[*:1])C(=O)[*:2]; Orn = NCCC[CH](N)C(=O)O

Consider `O=C(/C=C/c1cccnc1)c1ccccc1`, for which the EC50 was over 123 µM and the IC50 came to 7.59 µM.
As to `COc1ccc(-c2cc(=O)c3c(OC)c(OC)c(OC)cc3o2)cc1`, the EC50 is over 129 µM and the half-inhibitory concentration (IC50) came to 41.7 µM.
Taken in the same sequence, the figures for `CCc1cccc(C(C)CC)c1NC(=O)C(=O)Cc1nc2ccccc2o1` (centres undefined) were over 347 µM and over 347 µM.
As for `[O-][n+]1c2ccccc2cc2c1c1ccccc1n2O`, the EC50 is over 20.9 µM and the IC50 was over 20.9 µM.
As to `O=P1(Oc2ccccc2)Nc2cc(Cl)ccc2S1` (centres undefined), the EC50 was over 45.7 µM and the IC50 is 22.4 µM.
For `Cc1ccc([N+](=O)[O-])cc1NC(=O)/C(=N/NC(=S)NN)C1SC(=S)NC1=O` (centres undefined) the same measures were over 302 µM and over 302 µM.
Turning to `CC1CCC(=NNS(=O)(=O)c2ccc(N)cc2)CC1` (centres undefined), the EC50 is over 129 µM and the IC50 is over 129 µM.
Take `Cc1ccc(S(=O)(=O)N2CCSCCSCCSCCN(S(=O)(=O)c3ccc(C)cc3)CC2)cc1`: the EC50 was over 12.6 µM and the IC50 is over 12.6 µM.
As to `COC(=O)C[C@](O)(CCCC(C)(C)O)C(=O)O[C@@H]1C(OC)=C[C@]23CCCN2CCc2cc4c(cc2[C@H]13)OCO4`, the EC50 is over 2.29 µM and the half-maximal inhibitory concentration (IC50) is 0.0138 µM.
As for `Nc1ccc(Nc2nc(F)nc(-c3c4ccccc4c4n3CCS4)n2)cc1`, the EC50 is over 7.24 µM and the IC50 is 3.63 µM.
`Cc1ccc(S(=O)(=O)N/N=C(\c2nc3ccc(Cl)cc3[nH]c2=O)C(O)c2ccco2)cc1` (centres undefined): the EC50 was over 275 µM and the IC50 came to 17 µM.
Taken in the same sequence, the figures for `CN(C)C(=O)Oc1c(-c2ccccc2)c(=O)n2c3ccccc3n3c(=O)n(C)c(=O)c1c23` were over 1.26 µM and over 1.26 µM.
Take `O=C(O)O`: the result was inactive.
Regarding `O=C(Cc1ccccc1)NN1C(=O)/C(=C\c2ccccc2)SC1=Nc1ccccc1`, the EC50 was over 120 µM and the IC50 was over 120 µM.
`CCOC1(c2ccccc2)OC(=O)c2ccccc21` (centres undefined): the outcome was inactive.
Consider `Cc1cccc2c1C(=O)[C@@](C)([C@]1(C)Nc3cccc(C)c3C1=O)N2`, for which the EC50 was over 200 µM and the IC50 was over 200 µM.
Turning to `c1cc2c(s1)CCC/C2=N\N=C1/CCCc2sccc21`, the outcome was inactive.
On to `Cc1nc2ccc(NC3OC(CO)C(O)C(O)C3O)cc2c(=O)n1-c1ccccc1` (centres undefined), for which the EC50 is over 200 µM and the IC50 was over 200 µM.
As to `C=Cc1cc[n+](CC(=O)c2ccc(-c3ccccc3)cc2)cc1`, the EC50 was over 200 µM and the IC50 was determined as 45.7 µM.
Consider `Cc1ccc(O)c(N=Nc2ccc(S(=O)(=O)O)cc2)n1`, for which the outcome was inactive.
In the case of `O=C1c2ccccc2C(=O)C12CCc1ccccc12`, the outcome was inactive.
In the case of `CN(C)Cc1cc(C(=O)/C=C/c2ccccc2)cc(CN(C)C)c1O`, the EC50 is over 200 µM and the IC50 is 25.1 µM.
Take `CC(C)(c1cc(Cl)c(O)c(CN2CCOCC2)c1)c1cc(Cl)c(O)c(CN2CCOCC2)c1`: the EC50 is over 200 µM and the IC50 came to 107 µM.
Regarding `COc1ccc(/C=C/c2ccnc3ccccc23)cc1OC`, the EC50 is 0.0631 µM and the concentration for half-maximal inhibition (IC50) came to 50.1 µM.
`CC1(C)SC2C(NC(=O)C(C(=O)O)c3ccccc3)C(=O)N2C1C(=O)O` (centres undefined): the EC50 was over 200 µM and the IC50 is over 200 µM.
For the molecule `Brc1ccccc2cc(-c3ccccc3)nc1-2`, the outcome was inactive.
`CCCCCCCCCCCCCCCCOP(=O)(O)OP(=O)(O)OCC1OC(n2ccc(N)nc2=O)C(O)C1O` (centres undefined): the EC50 is 174 µM and > 100 µM.
For `N.N.N.N.N.N#Cc1nn[n-]n1.[Cl-].[Co+3]`, the EC50 is over 813 µM and the IC50 was over 813 µM.
`O=CC1=CN2C(c3ccoc3)CCC(CO)C2CC1` (centres undefined): the result was inactive.
Regarding `CC[N+]12CN3CN(CN(C3)C1)C2`, the EC50 is over 851 µM and the IC50 worked out at 437 µM.
`O=C(Cn1cc(Br)c(=O)[nH]c1=O)c1ccc(-c2ccccc2)cc1`: the EC50 was over 200 µM and the IC50 is over 200 µM.
For the molecule `CC(C)CC(NC(=O)C(Cc1ccc(O)cc1)NC(=O)C(CO)NC(=O)C(N)CCC(N)=O)C(=O)NCC(=O)O` (centres undefined) (H-QSYLG-OH; configuration not given here), the outcome was inactive.
Take `CCCCN(CCCC)CN1C(=O)/C(=C/c2ccc(NC(C)=O)cc2)NC1=S`: the EC50 is over 200 µM and the IC50 was over 200 µM.
For the molecule `CCOC(=O)/C(C#N)=C\c1ccc(N(CCC(=O)O)CCC(=O)O)c(I)c1`, the EC50 was over 501 µM and the IC50 is over 501 µM.
`COC1CC(O[C@H]2CC[C@@]3(C)[C@H](CC[C@@H]4[C@@H]3CC[C@]3(C)[C@@H](C5=CC(=O)OC5)[C@@H](OC(C)=O)C[C@]43O)C2)OC(C)C1O` (some centres undefined): the EC50 was over 0.2 µM and the IC50 came out at 0.0102 µM.
With `CCOC(=O)c1ccc(Nc2cnc3cc(C(F)(F)F)ccc3n2)cc1`, the EC50 is over 200 µM and the IC50 was 141 µM.
`CN=C1Nc2ccccc2C(=O)N2CSCC12` (centres undefined): the EC50 is over 200 µM and the IC50 is over 200 µM.
For the molecule `CSc1cc(-c2ccccc2)s[s+]1` (tested in a mixture with another compound), the EC50 is over 200 µM and the IC50 is 35.5 µM.
As for `CC/C=C(\C)C(CCC)(CN=O)C(=O)OCC` (centres undefined), the result was inactive.
With `Cc1cnc2sn(-c3ccc(Br)cc3)c(=O)c2c1`, the EC50 was over 200 µM and the half-maximal inhibitory concentration (IC50) was 11.5 µM.
On to `O=C(O)c1nc2cc(Cl)ccc2[nH]c1=O`, for which the EC50 is over 200 µM and the IC50 is over 200 µM.
With `CN(C)C(=S)NC(=S)Nc1ccc2ccccc2c1`, the result was inactive.
Turning to `COc1cc2oc(-c3ccc(O)cc3)cc(=O)c2c(OC)c1OC`, the concentration for a half-maximal effect (EC50) is 97.7 µM and the IC50 was over 200 µM.
Consider `Nc1nc(Cl)cc(NCCCCCNc2cc(Cl)nc(N)n2)n1`, for which the result was inactive.
Regarding `CC1(C)COP(Oc2ccccc2)OC1`, the EC50 was over 200 µM and the IC50 is over 200 µM.
Turning to `CC(=O)OC1c2ccccc2C2c3ccccc3C1C2(C)C(Cl)(Cl)Cl` (centres undefined), the EC50 was over 13.2 µM and the IC50 was over 13.2 µM.
Turning to `O=c1[nH]c2ccccc2c(O)c1/C=N/C(=S)NCCc1ccccc1`, the EC50 was over 200 µM and the IC50 is over 200 µM.
For the molecule `CC(C)NCC1CCc2cc(CO)c([N+](=O)[O-])cc2N1` (centres undefined), the EC50 is over 200 µM and the IC50 was over 200 µM.
Turning to `Cl/C=C\C[N+]12CN3CN(CN(C3)C1)C2`, the EC50 was over 200 µM and the concentration for half-maximal inhibition (IC50) stood at 93.3 µM.
`CC(=O)/C(=C/c1ccc(N(C)C)cc1)C(=O)c1ccccc1`: the EC50 was over 6.76 µM and the concentration for half-maximal inhibition (IC50) is over 6.76 µM.
As to `O=C1C2=Nc3ccccc3C(O)N2c2ccccc21` (centres undefined), the EC50 was over 200 µM and the IC50 came out at 69.2 µM.
For `CC(O)C(NC(=O)C(CCCN)NC(=O)C(CC(O)CN=C(N)N)NC(=O)C(N)CCCN=C(N)N)C(=O)NC(CCCN)C(=O)NC(CC(O)CN=C(N)N)C(=O)NC(Cc1ccc(O)cc1)C(=O)O` (centres undefined) (H-R[X7][Orn]T[Orn][X7]Y-OH; configuration not given here), the EC50 is over 245 µM and the half-inhibitory concentration (IC50) turned out to be 174 µM.
For `CCOC(=O)N/N=C(/OCC)c1ccccc1` the same measures were over 200 µM and over 200 µM.
With `N#CCN1CCOCCOCCN(CC#N)CCOCCOCC1`, the result was inactive.
`COc1ccc(C2SCC(=O)N2c2ccc(-n3c(-c4ccccc4)nc4ccccc4c3=O)cc2)cc1OC` (centres undefined): the EC50 was over 200 µM and the IC50 was over 200 µM.
For the molecule `COc1ccc(N)c(CC2c3ccccc3CCN2C)c1` (centres undefined), the outcome was inactive.
Turning to `O=S(=O)(c1ccccc1)N1CCC1c1ccccc1` (centres undefined), the result was inactive.
With `O=C(O)c1ccccc1/C=C1\Cc2ccccc2C1=O`, the EC50 was over 200 µM and the IC50 came to 120 µM.
As for `COc1cc(/C=C2\CCC/C(=C\c3cc(OC)c(O)c(OC)c3)C2=O)cc(OC)c1O`, the EC50 was over 200 µM and the IC50 stood at 0.933 µM.
As for `CCCCSCc1nc2ccccc2c(C)[n+]1[O-]`, the EC50 is 234 µM and the IC50 is 437 µM.
For `O=C1CS(=O)(=O)C(c2ccc(Cl)cc2)N1N1C(=O)CS(=O)(=O)C1c1ccc(Cl)cc1` (centres undefined) the same measures were over 200 µM and 5.75 µM.
For `Cc1ccc2c(c1)C1(SC(C)C(=O)N1c1ccc(Br)cc1)C(=O)N2` (centres undefined) the same measures were over 200 µM and 6.31 µM.
As to `Cc1coc2c1[C@@H](O)[C@@]1(C)[C@H](CCC[C@@H]1C)C2`, the EC50 was over 200 µM and the IC50 came out at 35.5 µM.
For `Clc1ccc(C2=NN(c3ccccc3)C3c4cc(Br)ccc4OCC23)cc1` (centres undefined) the same measures were over 11.7 µM and over 11.7 µM.
`NCCSS(=O)(=O)CCN`: the EC50 was over 363 µM.
In the case of `N#C/C(=C\c1ccc(O)c(O)c1)C(=O)NCCCNC(=O)/C(C#N)=C/c1ccc(O)c(O)c1`, the EC50 is over 200 µM and the half-maximal inhibitory concentration (IC50) amounted to 66.1 µM.
Taken in the same sequence, the figures for `N#C/C(=C\NC(=S)NC1CCCCC1)c1nc2ccccc2s1` were over 200 µM and 41.7 µM.
For `C/C(=N\NC(=O)N/N=C(\C)c1ccccn1)c1ccccn1` the same measures were over 2 µM and 0.0339 µM.
Consider `CCNC(=S)Nc1c(C#N)c2n(c1C(=O)OCC)CCCCC2`, for which the EC50 is over 200 µM and the IC50 was over 200 µM.
Regarding `CC(=O)OCCOCN1C(=O)NC(=O)/C(=C/c2cccc(OCc3ccccc3)c2)C1=O`, the EC50 was over 200 µM and the IC50 was 18.2 µM.
For the molecule `CC(C)COP(=O)(OCC(C)C)C(NS(=O)(=O)c1ccccc1)(C(F)(F)F)C(F)(F)F`, the outcome was inactive.
For `CCN(CC)CCOC(=O)C1(CCC(C)C)CCCCC1`, the EC50 is over 200 µM and the IC50 is 123 µM.
As for `COC(=O)c1cc(Cc2cc(C(c3cc(Cc4cc(Cl)c(O)c(C(=O)OC)c4)c(O)c(C(=O)OC)c3)C(Cl)(Cl)Cl)cc(C(=O)OC)c2O)cc(Cl)c1O`, the EC50 is over 200 µM and the 50% inhibitory concentration (IC50) was over 200 µM.

These data come from PubChem BioAssay AID179 (DTP/NCI, 2004).
